Literature values in patent US8158770B2, “Content dependent inhibitors of cytidine deaminases and uses thereof” (University of Rochester, priority 2004, dated 2012).

What was measured:
[1] = by comparison to 5-aza-dC and ara-C
[2] = by comparison to 5-aza-dC and ara-C; remark: listed apart in the source

In the case of `O=c1ncccn1[C@@H]1O[C@H](CO)[C@@H](O)[C@H]1O` [zebularine, 1-(beta-D-ribofuranosyl)-1,2-dihydropyrmidin-2-one], the “chemically stable in aqueous solution, up to pH” value [1] is listed as ≤ 12 pH and the cytotoxicity [2] is listed as “considerably less cytotoxic”.
